From ChEMBL document CHEMBL4706513, “New insight into 20(S)-ginsenoside Rh2 against T-cell acute lymphoblastic leukemia associated with the gut microbiota and the immune system” (2020)
Activity calls are given as the source filed them.

Experiments:
Mus musculus [1] = experiment: Inhibition of intestinal dysbiosis in SCID/NOD mouse xenografted with human Jurkat cells assessed as decrease in abundance of Proteobacteria in cecum at 40 mg/kg, po administered once a day for 3 weeks by multiplexed 16S rRNA gene sequencing analysis; assay type: functional, organism-based; details: dose 40.0 mg/kg/day
Mus musculus [2] = experiment: Induction of immune response in SCID/NOD mouse xenografted with human Jurkat cells assessed as decrease in IL-10 level in spleen at 40 mg/kg, po administered once a day for 3 weeks by ELISA reader method; assay type: functional, organism-based; details: dose 40.0 mg/kg/day
Mus musculus [3] = experiment: Induction of intestinal homeostasis in SCID/NOD mouse xenografted with human Jurkat cells assessed as decrease in disordered arrangement of epithelial cells in the colon at 40 mg/kg, po administered once a day for 3 weeks by AB-PAS staining based microscopic analysis; assay type: functional, organism-based; details: dose 40.0 mg/kg/day
Mus musculus [4] = experiment: Induction of immune response in SCID/NOD mouse xenografted with human Jurkat cells assessed as increase in IL-2 level in spleen at 40 mg/kg, po administered once a day for 3 weeks by ELISA reader method; assay type: functional, organism-based; details: dose 40.0 mg/kg/day
Mus musculus [5] = experiment: Inhibition of spleen infiltration in SCID/NOD mouse xenografted with human Jurkat cells assessed as reduction in spleen index at 40 mg/kg, po administered once a day for 3 weeks; assay type: functional, organism-based; details: dose 40.0 mg/kg/day
Mus musculus [6] = experiment: Inhibition of intestinal inflammation in SCID/NOD mouse xenografted with human Jurkat cells assessed as increase in IL-10 level in colon at 40 mg/kg, po administered once a day for 3 weeks by ELISA; assay type: functional, organism-based; details: dose 40.0 mg/kg/day
Mus musculus [7] = experiment: Induction of intestinal homeostasis in SCID/NOD mouse xenografted with human Jurkat cells assessed as upregulation of claudin-1 mRNA levels in colon at 40 mg/kg, po administered once a day for 3 weeks by real time RT-PCR analysis; assay type: functional, organism-based; details: dose 40.0 mg/kg/day
Mus musculus [8] = experiment: Antitumour activity against human Jurkat cells xenografted in SCID/NOD mouse assessed as decrease in expression of CD45 in bone marrow at 40 mg/kg, po administered once a day for 3 weeks by immunohistochemical staining method; assay type: functional, organism-based; details: dose 40.0 mg/kg/day
Mus musculus [9] = experiment: Inhibition of intestinal dysbiosis in SCID/NOD mouse xenografted with human Jurkat cells assessed as decrease in abundance of Alistipes in cecum at 40 mg/kg, po administered once a day for 3 weeks by multiplexed 16S rRNA gene sequencing analysis; assay type: functional, organism-based; details: dose 40.0 mg/kg/day
Mus musculus [10] = experiment: Inhibition of intestinal inflammation in SCID/NOD mouse xenografted with human Jurkat cells assessed as decrease in IL-6 level in colon at 40 mg/kg, po administered once a day for 3 weeks by ELISA; assay type: functional, organism-based; details: dose 40.0 mg/kg/day
Mus musculus [11] = experiment: In vivo inhibition of PI3K phosphorylation at Ser249 residue in spleen of SCID/NOD mouse xenografted with human Jurkat cells at 40 mg/kg, po administered once a day for 3 weeks by Western blot method; assay type: functional, organism-based; details: dose 40.0 mg/kg/day
Mus musculus [12] = experiment: Induction of immune response in SCID/NOD mouse xenografted with human Jurkat cells assessed as decrease in IL-4 level in spleen at 40 mg/kg, po administered once a day for 3 weeks by ELISA reader method; assay type: functional, organism-based; details: dose 40.0 mg/kg/day
Mus musculus [13] = experiment: Inhibition of intestinal dysbiosis in SCID/NOD mouse xenografted with human Jurkat cells assessed as increase in abundance of Verrucomicrobia in cecum at 40 mg/kg, po administered once a day for 3 weeks by multiplexed 16S rRNA gene sequencing analysis; assay type: functional, organism-based; details: dose 40.0 mg/kg/day
Mus musculus [14] = experiment: Inhibition of intestinal dysbiosis in SCID/NOD mouse xenografted with human Jurkat cells assessed as increase in abundance of Lachnospiraceae_ NK4A136_group in cecum at 40 mg/kg, po administered once a day for 3 weeks by multiplexed 16S rRNA gene sequencing analysis; assay type: functional, organism-based; details: dose 40.0 mg/kg/day
Mus musculus [15] = experiment: Induction of immune response in SCID/NOD mouse xenografted with human Jurkat cells assessed as increase in IFN-gamma level in spleen at 40 mg/kg, po administered once a day for 3 weeks by ELISA reader method; assay type: functional, organism-based; details: dose 40.0 mg/kg/day
Jurkat [16] = experiment: Antitumour activity against human Jurkat cells xenografted in SCID/NOD mouse assessed as increase in body weight at 40 mg/kg, po administered once a day for 3 weeks; assay type: functional, organism-based; details: dose 40.0 mg/kg/day
Mus musculus [17] = experiment: Induction of intestinal homeostasis in SCID/NOD mouse xenografted with human Jurkat cells assessed as decrease of enlargement of epithelial cells and infiltration of inflammatory cells in the colon at 40 mg/kg, po administered once a day for 3 weeks by Hand E staining based microscopic analysis; assay type: functional, organism-based; details: dose 40.0 mg/kg/day
Jurkat [18] = experiment: Antitumour activity against human Jurkat cells xenografted in SCID/NOD mouse assessed as proportion of CD3-positive cells in peripheral blood at 40 mg/kg, po administered once a day for 3 weeks by immunophenotyping based flow cytometry method (reference value: 18.81%); assay type: functional; details: dose 40 mg/kg/day
Mus musculus [19] = experiment: Induction of intestinal homeostasis in SCID/NOD mouse xenografted with human Jurkat cells assessed as upregulation of ZO-1 mRNA levels in colon at 40 mg/kg, po administered once a day for 3 weeks by real time RT-PCR analysis; assay type: functional, organism-based; details: dose 40.0 mg/kg/day
Mus musculus [20] = experiment: Inhibition of intestinal inflammation in SCID/NOD mouse xenografted with human Jurkat cells assessed as decrease in IL1beta level in colon at 40 mg/kg, po administered once a day for 3 weeks by ELISA; assay type: functional, organism-based; details: dose 40.0 mg/kg/day
Mus musculus [21] = experiment: Induction of intestinal homeostasis in SCID/NOD mouse xenografted with human Jurkat cells assessed as upregulation of occludin mRNA levels in colon at 40 mg/kg, po administered once a day for 3 weeks by real time RT-PCR analysis; assay type: functional, organism-based; details: dose 40.0 mg/kg/day
Mus musculus [22] = experiment: Inhibition of intestinal inflammation in SCID/NOD mouse xenografted with human Jurkat cells assessed as increase in TGFbeta level in colon at 40 mg/kg, po administered once a day for 3 weeks by ELISA; assay type: functional, organism-based; details: dose 40.0 mg/kg/day
Mus musculus [23] = experiment: Inhibition of intestinal dysbiosis in SCID/NOD mouse xenografted with human Jurkat cells assessed as decrease in abundance of parabacteroides in cecum at 40 mg/kg, po administered once a day for 3 weeks by multiplexed 16S rRNA gene sequencing analysis; assay type: functional, organism-based; details: dose 40.0 mg/kg/day
Mus musculus [24] = experiment: Inhibition of intestinal inflammation in SCID/NOD mouse xenografted with human Jurkat cells assessed as decrease in LPS level in colon at 40 mg/kg, po administered once a day for 3 weeks by ELISA; assay type: functional, organism-based; details: dose 40.0 mg/kg/day

CC(C)=CCC[C@](C)(O)[C@H]1CC[C@]2(C)[C@@H]1[C@H](O)C[C@@H]1[C@@]3(C)CC[C@H](O[C@@H]4O[C@H](CO)[C@@H](O)[C@H](O)[C@H]4O)C(C)(C)[C@@H]3CC[C@]12C [GINSENOSIDE RH2]
5.78%: Activity (Jurkat [18])
active: inhibition (Mus musculus [1]) | Activity (Mus musculus [2]) | Activity (Mus musculus [3]) | Activity (Mus musculus [4]) | inhibition (Mus musculus [5]) | inhibition (Mus musculus [6]) | Activity (Mus musculus [7]) | Activity (Mus musculus [8]) | inhibition (Mus musculus [9]) | inhibition (Mus musculus [10]) | inhibition (Mus musculus [11]) | Activity (Mus musculus [12]) | inhibition (Mus musculus [13]) | inhibition (Mus musculus [14]) | Activity (Mus musculus [15]) | Activity (Jurkat [16]) | Activity (Mus musculus [17]) | Activity (Mus musculus [19]) | inhibition (Mus musculus [20]) | Activity (Mus musculus [21]) | inhibition (Mus musculus [22]) | inhibition (Mus musculus [23]) | inhibition (Mus musculus [24])
